Test results: paper PMC3987113 (Toxicology and applied pharmacology, 2009)
Entries after “also recorded” stand apart in the source; their conditions may differ.

Experiments:
[1] = tested on: liver of immature, ovariectomized C57BL/6 mice; details: ref Boverhof et al. 2005; Kopec et al. 2008; cited from earlier work
[2] = 300 μg/kg PCB126; ref Kopec et al. 2008; cited from earlier work
[3] = liver, PCB126; ref Kopec et al. 2008; cited from earlier work
[4] = tested on: liver of immature, ovariectomized C57BL/6 mice; experiment: Liver histopathology; format: in vivo; details: 300 mg/kg PCB153 or 30 μg/kg TCDD
hepatic gene expression [5] = details: hepatic mRNA, cDNA microarray, 30 μg/kg TCDD; maximum fold change, |fold change|≥1.5, P1(t)≥0.90; ref Boverhof et al. 2005; cited from earlier work
hepatic gene expression [6] = experiment: QRT-PCR verification of hepatic gene expression; format: in vivo, C57BL/6 mice
[7] = Body and liver weights, time course study; format: in vivo, C57BL/6 mice; details: 300 mg/kg PCB153 or 30 μg/kg TCDD, mean ± SD, n=5; for Body weight gain: terminal body weight divided by body weight prior to dosing
hepatic gene expression [8] = experiment: Hepatic gene expression, Agilent 4 x 44K microarrays; format: in vivo, C57BL/6 mice; details: hepatic mRNA, 30 μg/kg TCDD; maximum fold change, |fold change|≥1.5, P1(t)≥0.90
[9] = Hepatic tissue level quantification by HRGC/HRMS; format: in vivo, C57BL/6 mice; details: liver, 168 h vs 24 h; single gavage 300 mg/kg PCB153 or 30 μg/kg TCDD

Compound: Clc1ccc(-c2cc(Cl)c(Cl)c(Cl)c2)cc1Cl [PCB126, 3,3′,4,4′,5-pentachlorobiphenyl]
- Hepatocyte cell size and number [1]: not affected
- Effect on relative liver weight (RLW) [2]: also increased RLW at later time points
- Hepatic level over time [3]: continued to increase throughout the study, reaching the highest concentration at 7 days

Compound: Clc1cc2c(cc1Cl)Oc1cc(Cl)c(Cl)cc1O2 [TCDD, 2,3,7,8-tetrachlorodibenzo-p-dioxin, reference compound]
- Hepatic lipid accumulation, Oil Red O staining [4]: significant lipid accumulation
- Necrosis and immune (mixed) cell infiltration in liver [4]: more dramatic vacuolization, and necrosis, as well as mixed cell infiltration
- Hepatic inflammation ([4]; time course): moderate multifocal inflammation; also recorded: instances of multifocal inflammation
- Hepatocellular vacuolization, time course study ([4]; Fig. 2 at 168 h): more severe; also recorded: slight to moderate vacuolization
- TCDD time course Boverhof et al., Abcc3 fold change (hepatic gene expression [5]): 1.5 fold
- TCDD time course Boverhof et al., Agpat4 fold change (hepatic gene expression [5]): no change
- TCDD time course Boverhof et al., Akr1b7 fold change (hepatic gene expression [5]): no change
- TCDD time course Boverhof et al., Cds2 fold change (hepatic gene expression [5]): no change
- TCDD time course Boverhof et al., Ces2 fold change (hepatic gene expression [5]): 1.6 fold
- TCDD time course Boverhof et al., Cyp2b10 fold change (hepatic gene expression [5]): no change
- TCDD time course Boverhof et al., Dhfr fold change (hepatic gene expression [5]): −1.5 fold
- TCDD time course Boverhof et al., Elovl6 fold change (hepatic gene expression [5]): −1.8 fold
- TCDD time course Boverhof et al., Fasn fold change (hepatic gene expression [5]): −1.9 fold
- TCDD time course Boverhof et al., Fmo5 fold change (hepatic gene expression [5]): no change
- TCDD time course Boverhof et al., Gadd45b fold change (hepatic gene expression [5]): 4.6 fold
- TCDD time course Boverhof et al., Gpx2 fold change (hepatic gene expression [5]): no change
- TCDD time course Boverhof et al., Gsta2 fold change (hepatic gene expression [5]): 7.2 fold
- TCDD time course Boverhof et al., Gstt3 fold change (hepatic gene expression [5]): no change
- TCDD time course Boverhof et al., Insig2 fold change (hepatic gene expression [5]): no change
- TCDD time course Boverhof et al., Myc fold change (hepatic gene expression [5]): 3.7 fold
- TCDD time course Boverhof et al., Nol3 fold change (hepatic gene expression [5]): no change
- TCDD time course Boverhof et al., Slc1a4 fold change (hepatic gene expression [5]): no change
- TCDD time course Boverhof et al., Srebf1 fold change (hepatic gene expression [5]): −2.1 fold
- TCDD time course Boverhof et al., Srebf2 fold change (hepatic gene expression [5]): 1.5 fold
- TCDD time course Boverhof et al., Ugdh fold change (hepatic gene expression [5]): 3.1 fold
- Hepatocyte cell size and number [1]: not affected
- Regulation of PCB153-responsive (CAR/PXR) genes by TCDD (hepatic gene expression [6]; 30 μg/kg TCDD, Table 3 and Fig. 5C): reciprocally modest; also recorded: minimal differential expression
- Cyp1a2 induction (hepatic gene expression [6]; hepatic mRNA, time course, 30 μg/kg TCDD (Fig. 6A) or 300 mg/kg PCB153 (Fig. 6B)): ~ 30 fold
- Elovl5 fold change (hepatic gene expression [6]; hepatic mRNA, time course, 300 mg/kg PCB153 or 30 μg/kg TCDD (Fig. 6A-B)): 2.2 fold
- Liver weight ([7]; 4 h): 0.733 ± 0.044 g
- Relative liver weight ([7]; 4 h): 0.054 ± 0.003
- Body weight gain ([7]; 4 h): 1.0 ± 0.0
- Terminal body weight ([7]; 4 h after single gavage): 13.6 ± 0.8 g
- Liver weight ([7]; 12 h): 0.724 ± 0.025 g
- Relative liver weight ([7]; 12 h): 0.056 ± 0.001
- Body weight gain ([7]; 12 h): 1.1 ± 0.0
- Terminal body weight ([7]; 12 h after single gavage): 12.8 ± 0.7 g
- Liver weight ([7]; 24 h): 0.973 ± 0.088 g
- Relative liver weight ([7]; 24 h): 0.068 ± 0.003
- Body weight gain ([7]; 24 h): 1.1 ± 0.0
- Terminal body weight ([7]; 24 h after single gavage): 14.2 ± 0.9 g
- Liver weight ([7]; 72 h): 1.068 ± 0.060 g
- Relative liver weight ([7]; 72 h): 0.071 ± 0.003
- Body weight gain ([7]; 72 h): 1.2 ± 0.1
- Terminal body weight ([7]; 72 h after single gavage): 15.1 ± 0.7 g
- Liver weight ([7]; 168 h): 1.263 ± 0.080 g
- Relative liver weight ([7]; 168 h): 0.072 ± 0.003
- Body weight gain ([7]; 168 h): 1.3 ± 0.0
- Terminal body weight ([7]; 168 h after single gavage): 17.5 ± 0.4 g
- TCDD fold change, Abcc3 (hepatic gene expression [8]): 1.7 fold
- TCDD fold change, Acsl3 (hepatic gene expression [8]): −2.3 fold
- TCDD fold change, Agpat4 (hepatic gene expression [8]): no change
- TCDD fold change, Akr1b7 (hepatic gene expression [8]): no change
- TCDD fold change, Akr1c20 (hepatic gene expression [8]): −1.7 fold
- TCDD fold change, Aox1 (hepatic gene expression [8]): 2.2 fold
- TCDD fold change, Cdca2 (hepatic gene expression [8]): no change
- TCDD fold change, Cds2 (hepatic gene expression [8]): no change
- TCDD fold change, Ces2 (hepatic gene expression [8]): 2.5 fold
- TCDD fold change, Cyp2b9 (hepatic gene expression [8]): no change
- TCDD fold change, Cyp2b10 (hepatic gene expression [8]): 2.3 fold
- TCDD fold change, Cyp2b23 (hepatic gene expression [8]): no change
- TCDD fold change, Cyp2c54 (hepatic gene expression [8]): no change
- TCDD fold change, Cyp2c55 (hepatic gene expression [8]): 1.8 fold
- TCDD fold change, Cyp3a25 (hepatic gene expression [8]): no change
- TCDD fold change, Dhfr (hepatic gene expression [8]): no change
- TCDD fold change, Elovl6 (hepatic gene expression [8]): −4.3 fold
- TCDD fold change, Fasn (hepatic gene expression [8]): −4.3 fold
- TCDD fold change, Fmo5 (hepatic gene expression [8]): no change
- TCDD fold change, Gadd45a (hepatic gene expression [8]): −3.6 fold
- TCDD fold change, Gadd45b (hepatic gene expression [8]): 3.2 fold
- TCDD fold change, Gpx2 (hepatic gene expression [8]): no change
- TCDD fold change, Gsta2 (hepatic gene expression [8]): 5.9 fold
- TCDD fold change, Gstm4 (hepatic gene expression [8]): 2.4 fold
- TCDD fold change, Gstt3 (hepatic gene expression [8]): 1.5 fold
- TCDD fold change, Hmgcr (hepatic gene expression [8]): −2.6 fold
- TCDD fold change, Hsd17b2 (hepatic gene expression [8]): 2.2 fold
- TCDD fold change, Insig2 (hepatic gene expression [8]): −1.7 fold
- TCDD fold change, Mad1l1 (hepatic gene expression [8]): no change
- TCDD fold change, Myc (hepatic gene expression [8]): 3.0 fold
- TCDD fold change, Nol3 (hepatic gene expression [8]): no change
- TCDD fold change, Pla2g12a (hepatic gene expression [8]): 3.1 fold
- TCDD fold change, Slc1a4 (hepatic gene expression [8]): no change
- TCDD fold change, Slc23a1 (hepatic gene expression [8]): −1.7 fold
- TCDD fold change, Smpd3 (hepatic gene expression [8]): −2.6 fold
- TCDD fold change, Srebf1 (hepatic gene expression [8]): −2.3 fold
- TCDD fold change, Srebf2 (hepatic gene expression [8]): −1.7 fold
- TCDD fold change, Ugdh (hepatic gene expression [8]): 2.7 fold
- TCDD fold change, Zwint (hepatic gene expression [8]): no change
- Decrease of hepatic level after 7 days [9]: ~ 1.4 fold
